From paper PMC5110965, “Evolutionarily conserved odorant receptor function questions ecological context of octenol role in mosquitoes” (Scientific Reports, 2016) come the findings set out here.

pEC50: −log10 of the molar value.

The subject of test [1] is T1, TaOR8.
T1 construct: gene Or8; with TaORco
Nature of the test: two-electrode voltage clamp in Xenopus oocytes, concentration-response. Type of test: cell-based, Toxorhynchites amboinensis. In general terms: Two-electrode voltage clamp is typically applied to oocytes expressing channels or transporters.

The subject of test [2] is T1, TaOR8. Nature of the test: two-electrode voltage clamp; […] DEET against […] (R)-octenol response. Type of test: cell-based, Toxorhynchites amboinensis. Conditions: 1000 µM.

In the test with TaOR8 [1], `C=CC(O)CCCCC` (racemic) [(RS), (RS)-1-octen-3-ol] gave a pEC50 of 5.48.

`C=C[C@H](O)CCCCC` [(R), (R)-(−)-1-octen-3-ol] had a pEC50 with TaOR8 [1] of 6.40.

Consider `C=C[C@@H](O)CCCCC` [(S), (S)-(+)-1-octen-3-ol], for which the pEC50 in the test with TaOR8 [1] was 4.30.

As to `CCN(CC)C(=O)c1cccc(C)c1` [DEET, N,N-Diethyl-meta-toluamide], the “% inhibition at 10^-3 M” value in the test with TaOR8 [2] is 90.

Usually pEC50 stands for −log10 of the EC50, conventionally taken in molar units. Low values mean a high EC50, high ones a low EC50.
